Data on 2 compounds can be found in patent EP0452507A1, “MEDICINE COMPRISING TOCOPHERYL GLYCOSIDE AS ACTIVE INGREDIENT” (NIPPON HYPOX LABORATORIES INCORPORATED, priority 1989, dated 1991).

Molecules are shown by their SMILES.

The assay concerns carrageenin-induced inflammation. The experiment in a line: carrageenin-induced inflammation, right hind paw swelling by volumetry. Type of assay: in vivo, rats. Particulars: Example 7, Fig. 6; for inhibition activity against carrageenin-induced inflammation: VIE-MAN 10, 30, 100 mg/kg, depending upon its dose, comparators 10 mg/kg, intraperitoneally. How it is done: Six groups each consisting of five male SD rats weighing 180 to 220 g were used (total 30 rats), and each rat was measured for a size of the subplantar region1 of the right hind paw.
In order to induce carrageenin-induced inflammation, 0.1 ml/rat of a physiological saline solution of 1 % X-carrageenin was prepared.
One out of the six groups was used as Control group. A physiological saline solution of 10 % Nikkol was administered intraperitoneally to each rat of this group, and 0.5 hours after the administration of the physiological saline solution of 10 % Nikkol, 0.1 ml of the physiological saline solution of 1 % X-carrageenin was administered intracutaneously into the subplantar region of the right hind paw of each rat. Then, 0.5, 1, 2, 3 and 4 hours after the administration of […] of the physiological saline solution of 1 % X-carrageenin, the swelling on the subplantar region of the right hind paw of each rat was measured by volumetry, arid the average of swelling ratios of the group in every measurement was determined on the basis of the measurement values of the sizes of subplantar regions of the right hind paws of the rats obtained before the administration of the physiological saline solution of 10 % Nikkol solution.
The procedure for Control group was repeated except that a physiological saline solution of 10 % Nikkol containing VIE-MAN in place of the physiological saline solution of 10 % Nikkol was administered intraperitoneally in such a dose that the amount of VIE-MAN was 10 mg/kg.
The procedure for Control group was repeated except that a physiological saline solution of 10 % Nikkol containing VIE-MAN in place of the physiological saline solution of 10 % Nikkol was administered intraperitoneally in such a dose that the amount of VIE-MAN was 30 mg/kg.
The procedure for Control group was repeated except that a physiological saline solution of 10 % Nikkol containing VIE-MAN in place of the physiological saline solution of 10 % Nikkol was administered intraperitoneally in such a dose that the amount of VIE-MAN was 100 mg/kg.
The procedure for Example groups ⑭, ⑮ and ⑯ was repeated except that a physiological saline solution of 10 % Nikkol containing cortisone acetate which was a steroidal anti-inflammatory preparation (immunosuppressive preparation) in place of the physiological saline solution of 10 % Nikkol containing VIE-MAN was administered intraperitoneally in such a dose that the amount of the cortisone acetate was 10 mg/kg.
The procedure for Example groups ⑭, ⑮ and ⑯ was repeated except that a physiological saline solution of 10 % Nikkol containing indomethacin which was a nonsteroidal anti-inflammatory preparation (antipyretic analgesic antiphlogistic preparation) in place of the physiological saline solution of 10 % Nikkol containing VIE-MAN was administered intraperitoneally in such a dose that the amount of the indomethacin was 10 mg/kg.

Consider `Cc1c(C)c2c(c(C)c1OC1OC(CO)C(O)C(O)C1O)CCC(C)(CCCC(C)CCCC(C)CCCC(C)C)O2` (racemic) [VIE-MAN, dl-a-tocopheryl-a-D-mannoside], for which the “inhibition activity against carrageenin-induced inflammation” value is on record as “excellent inhibition activity”. In addition, under “10, 30 and 100 mg/kg intraperitoneally, 0.5 hour after administration of 1 % carrageenin solution, versus Control group”, the “average of swelling ratios” value was “significantly lower than that of swelling ratios of Control group”.

As for `COc1ccc2c(c1)c(CC(=O)O)c(C)n2C(=O)c1ccc(Cl)cc1` [indomethacin, reference compound], the “inhibition activity against carrageenin-induced inflammation” value was “significant activity at and after 0.5 hour”. Further, for the setting “comparators 10 mg/kg intraperitoneally”, the “inhibition activity against carrageenin-induced inflammation compared with VIE-MAN” value is “lower than that of VIE-MAN”.
